Assay results taken from ChEMBL document CHEMBL1133206, “Antifungal rapamycin analogues with reduced immunosuppressive activity” (Bioorg Med Chem Lett, 2000).
Values after ≈ are worked out from the molar mass of the structure shown.

Key:
[1] = system: Candida albicans; test: In vitro antifungal activity against Candida albicans (CA 10231); format: functional
[2] = species: Homo sapiens; test: Inhibitory activity against human concanavalin-A proliferation assay; format: functional
[3] = system: Nakaseomyces glabratus; test: In vitro antifungal activity against Torulopsis glabrata (TG 15545); format: functional
[4] = system: Candida tropicalis; test: In vitro antifungal activity against Candida tropicalis (CT 750); format: functional
[5] = system: Candida albicans; test: In vitro for antifungal activity against Candida albicans (CA 579a); format: functional
[6] = system: Aspergillus niger; test: In vitro antifungal activity at a minimum inhibitory concentration (~100 ug/mL) against Aspergillus niger; Not affected; format: functional; details: Aspergillus niger; read-out: MIC
[7] = system: Candida albicans; test: In vitro antifungal activity against Candida albicans (CA 442); Weak; format: functional, organism-based
[8] = system: Candida albicans; test: In vitro antifungal activity against Candida albicans (CA 62376); Weak; format: functional, organism-based
[9] = system: Candida albicans; test: In vitro antifungal activity against Candida albicans (CA 38247); Weak; format: functional, organism-based
[10] = system: Candida albicans; test: In vitro antifungal activity against […] (CA 34140); Not affected.; format: functional
[11] = system: Pichia kudriavzevii; test: In vitro antifungal activity against Candida krusei (CK 28838); format: functional

Row | Compound | MIC [1] | MIC [3] | MIC [4] | MIC [5] | MIC [6] | MIC [7] | MIC [8] | MIC [9] | MIC [10] | MIC [11] | IC50 [2]
1 | CO[C@@H]1C[C@H](C[C@@H](C)[C@@H]2CC(=O)[C@H](C)/C=C(\C)[C@@H](O)[C@@H](OC)C(=O)[C@H](C)C[C@H](C)/C=C/C=C/C=C(\C)[C@@H](N(OC)C(=O)N(C)C)C[C@@H]3CC[C@@H](C)[C@@](O)(O3)C(=O)C(=O)N3CCCC[C@H]3C(=O)O2)CC[C@H]1O | > 100 µg/mL | 3.12 µg/mL (≈ 3.12 µM) | 50 µg/mL (≈ 50 µM) | > 100 µg/mL | ~100 µg/mL (≈ 100 µM) | Weak | Weak | Weak | ~100 µg/mL (≈ 100 µM) | 3.12 µg/mL (≈ 3.12 µM) | 3610 nM
2 | CO[C@@H]1C[C@H](C[C@@H](C)[C@@H]2CC(=O)[C@H](C)/C=C(\C)[C@@H](O)[C@@H](OC)C(=O)[C@H](C)C[C@H](C)/C=C/C=C/C=C(\C)[C@@H](N(O)C(N)=O)C[C@@H]3CC[C@@H](C)[C@@](O)(O3)C(=O)C(=O)N3CCCC[C@H]3C(=O)O2)CC[C@H]1O | 100 µg/mL (≈ 104 µM) | 1.56 µg/mL (≈ 1.63 µM) | 12.5 µg/mL (≈ 13 µM) | 100 µg/mL (≈ 104 µM) | ~100 µg/mL (≈ 104 µM) | Weak | Weak | Weak | ~100 µg/mL (≈ 104 µM) | 3.12 µg/mL (≈ 3.26 µM) | 758 nM
3 | CO[C@@H]1C[C@H](C[C@@H](C)[C@@H]2CC(=O)[C@H](C)/C=C(\C)[C@@H](O)[C@@H](OC)C(=O)[C@H](C)C[C@H](C)/C=C/C=C/C=C(\C)[C@H](N(O)C(=O)N(C)C)C[C@@H]3CC[C@@H](C)[C@@](O)(O3)C(=O)C(=O)N3CCCC[C@H]3C(=O)O2)CC[C@H]1O | 100 µg/mL (≈ 101 µM) | 3.12 µg/mL (≈ 3.16 µM) | 50 µg/mL (≈ 50.7 µM) | 100 µg/mL (≈ 101 µM) | ~100 µg/mL (≈ 101 µM) | Weak | Weak | Weak | ~100 µg/mL (≈ 101 µM) | – | 2030 nM

Continued by falling MIC [1], values first:

Row | MIC [1] | MIC [3] | MIC [4] | MIC [5] | MIC [6] | MIC [7] | MIC [8] | MIC [9] | MIC [10] | MIC [11] | Compound | IC50 [2]
4 | 100 µg/mL (≈ 101 µM) | 3.12 µg/mL (≈ 3.16 µM) | 50 µg/mL (≈ 50.7 µM) | 100 µg/mL (≈ 101 µM) | ~100 µg/mL (≈ 101 µM) | Weak | Weak | Weak | ~100 µg/mL (≈ 101 µM) | – | CO[C@@H]1C[C@H](C[C@@H](C)[C@@H]2CC(=O)[C@H](C)/C=C(\C)[C@@H](O)[C@@H](OC)C(=O)[C@H](C)C[C@H](C)/C=C/C=C/C=C(\C)[C@@H](N(O)C(=O)N(C)C)C[C@@H]3CC[C@@H](C)[C@@](O)(O3)C(=O)C(=O)N3CCCC[C@H]3C(=O)O2)CC[C@H]1O | 2030 nM
5 | 50 µg/mL (≈ 50.5 µM) | – | > 100 µg/mL | 50 µg/mL (≈ 50.5 µM) | – | – | – | – | – | 6.25 µg/mL (≈ 6.32 µM) | CO[C@H]1C[C@@H]2CC[C@@H](C)[C@@](O)(O2)C(=O)C(=O)N2CCCC[C@H]2C(=O)O[C@H]([C@H](C)C[C@@H]2CC[C@@H](OC(=O)N(C)C)[C@H](OC)C2)CC(=O)[C@H](C)/C=C(\C)[C@@H](O)[C@@H](OC)C(=O)[C@H](C)C[C@H](C)CCCC/C=C/1C | 485 nM
6 | 50 µg/mL (≈ 50 µM) | 1.56 µg/mL (≈ 1.56 µM) | 50 µg/mL (≈ 50 µM) | 50 µg/mL (≈ 50 µM) | ~100 µg/mL (≈ 100 µM) | Weak | Weak | Weak | ~100 µg/mL (≈ 100 µM) | 1.56 µg/mL (≈ 1.56 µM) | CO[C@@H]1C[C@H](C[C@@H](C)[C@@H]2CC(=O)[C@H](C)/C=C(\C)[C@@H](O)[C@@H](OC)C(=O)[C@H](C)C[C@H](C)/C=C/C=C/C=C(\C)[C@H](N(OC)C(=O)N(C)C)C[C@@H]3CC[C@@H](C)[C@@](O)(O3)C(=O)C(=O)N3CCCC[C@H]3C(=O)O2)CC[C@H]1O | 6.5 nM
7 | 3.12 µg/mL (≈ 3.15 µM) | – | 3.12 µg/mL (≈ 3.15 µM) | 3.12 µg/mL (≈ 3.15 µM) | – | – | – | – | – | 1.56 µg/mL (≈ 1.57 µM) | CO[C@H]1C[C@@H]2CC[C@@H](C)[C@@](O)(O2)C(=O)C(=O)N2CCCC[C@H]2C(=O)O[C@H]([C@H](C)C[C@@H]2CC[C@@H](OC(=O)N(C)O)[C@H](OC)C2)CC(=O)[C@H](C)/C=C(\C)[C@@H](O)[C@@H](OC)C(=O)[C@H](C)C[C@H](C)CCCC/C=C/1C | 434 nM
